Laboratory results published in patent US20120077957A1, “Lactam-Bridged Melanocortin Receptor-Specific Peptides” (PALATIN TECHNOLOGIES, INC., priority 2009, published 2012).
Bridge positions count the residues as written; N and C are the ends. Square brackets hold non-standard residues; d marks the D form. Peptide text beside a SMILES is read from it. Orn = NCCC[C@H](N)C(=O)O

Experiments:
[1] = biological target: T1, human MC4-R (Homo sapiens, UniProt P32245); assay: Competitive inhibition binding assay with [I125]-NDP-α-MSH or Eu-NDP-α-MSH, membranes of HEK-293 cells expressing recombinant hMC4-R; details: human MC4-R; averages of all comparable assays; read-out: Ki
T1 construct: expressed in transfected cells; host or cells: HEK293 T-REx (tetracycline-regulated, Invitrogen); cell line from Palatin Technologies with license from the University of Michigan
T1 sequence (P32245 whole entry): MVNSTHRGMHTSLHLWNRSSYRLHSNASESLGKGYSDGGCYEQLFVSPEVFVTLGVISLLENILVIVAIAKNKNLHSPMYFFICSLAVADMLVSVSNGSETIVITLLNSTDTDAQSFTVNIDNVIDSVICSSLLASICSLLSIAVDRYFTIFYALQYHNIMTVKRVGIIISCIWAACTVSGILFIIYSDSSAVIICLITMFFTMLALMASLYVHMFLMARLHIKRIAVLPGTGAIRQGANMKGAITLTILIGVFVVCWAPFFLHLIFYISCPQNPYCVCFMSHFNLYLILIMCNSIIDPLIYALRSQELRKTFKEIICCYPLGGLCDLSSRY
Description: A competitive inhibition binding assay was performed using membrane homogenates prepared from HEK-293 cells that express recombinant hMC4-R, hMC3-R, or hMC5-R, and from B-16 mouse melanoma cells (containing endogenous MC1-R). In some instances, HEK-293 cells that express recombinant hMC1-R were employed. In the examples that follow, all MC3-R, MC4-R and MC5-R values are for human recombinant receptors. […] After incubation for 60 minutes at 37° C., the assay mixture was filtered and the membranes washed three times with ice-cold buffer. Filters were dried and counted in a gamma counter for bound radioactivity. […] Maximal specific binding (100%) was defined as the difference in radioactivity (cpm) bound to cell membranes in the absence and presence of 1 μM NDP-α-MSH. […] Ki values for test peptides of the present invention were determined using Graph-Pad Prism® curve-fitting software.
Alternatively, a competitive inhibition binding assay was performed employing Eu-NDP-α-MSH (PerkinElmer Life Sciences catalog No. AD0225) with determination by time-resolved fluorometry (TRF) of the lanthanide chelate. […] After incubation for 90 minutes at 37° C., the reaction was stopped by filtration over AcroWell 96-well filter plates (Pall Life Sciences). The filter plates were washed 4 times with 200 μL of ice-cold phosphate-buffered saline. DELFIA Enhancement solution (PerkinElmer Life Sciences) was added to each well. […] Each assay was conducted in duplicate and mean values were utilized. Ki values were determined by curve-fitting with Graph-Pad Prism® software using a one-site fixed-slope competition binding model.

[2] = biological target: T1, human MC4-R; assay: cAMP functional assay in HEK-293 T-REx cells expressing human MC4-R, induced with doxycycline 0.1 ng/mL (low density); format: cell-based; details: doxycycline 0.1 ng/mL, averages of all comparable assays; for Emax: HEK293-T-REx, maximal cAMP stimulation, NDP-α-MSH = 100%, read-out: Emax; for EC50: human MC4-R cAMP assay, read-out: Ec50
From the text: A HEK293 cell line transfected with human MC4-R (from Palatin Technologies, US, with license from the University of Michigan) was used. The human MC4-R was introduced to HEK293 by using the T-REx™ System, Invitrogen. The T-REx™ System employs a tetracycline-regulated mammalian expression system that uses regulatory elements from the E. coli Tn10-encoded tetracycline (Tet) resistance operon. By use of the T-REx™ System, expression of the gene of interest, the human MC4-R gene, is repressed in the absence of tetracycline or doxycycline and induced in the presence of tetracycline or doxycycline (see T-REx™ System Manual, published by Invitrogen).
Cells were then counted and volume was adjusted to 5×10^4 cells per 200 μL.
The cells were then dispensed into 96-well plates (BD 353916) in 198 μL (about 5×10^4) cells/well and incubated for 10 minutes at 37° C. The compound to be tested was diluted with DMSO to a final concentration of 1 mM. Serial dilution was prepared in polypropylene removable 12-well library tube strips (VWR cat #83009-682). 120 μL of the 1 mM compound stock was pipetted in the second column on the plate.
2 μL of the standard, [Nle^4, D-Phe^7]alpha-Melanocyte Stimulating Hormone (NDP-α-MSH), or compound was added to the 96-well plate using the Janus robotic system. All assay samples were run in duplicate (i.e. each sample was in two low dox and two high dox plates, respectively). The plates were gently shaken and incubated for 15 minutes at 37° C. The reaction was stopped by adding 15 μL of lysis buffer per well and the plates were shakened for 30 minutes at room temperature.
Agonist stimulation of the MC4-R activates adenylate cyclase, which is an enzyme that catalyses the formation 3′,5′-cyclic adenosine monophosphate (cAMP) from adenosine triphosphate (ATP). […] Fluoresence ratios were then calculated as described in the CisBio HTRF kit, with GraphPad Prism software used to plot the change in fluorescence percent values versus cAMP concentration using the variable slope dose response curve and, based on calculated cAMP concentrations, to determine EC50 and Emax values. […]

Structure (SMILES) | Ki [1] | Emax [2] | EC50 [2]
CC(=O)N[C@@H](CCCNC(=N)N)C(=O)N[C@H]1CCC(=O)NCCC[C@@H](C(N)=O)NC(=O)[C@H](Cc2c[nH]c3ccccc23)NC(=O)[C@H](CCCNC(=N)N)NC(=O)[C@@H](Cc2ccccc2)NC(=O)[C@H](CCS(C)(=O)=O)NC1=O [No. 13, Ac-Arg-cyclo(Glu-Met(O2)-D-Phe-Arg-Trp-Orn)-NH2] | 8 nM | 71% | 5 nM
CC(=O)N[C@@H](CCCNC(=N)N)C(=O)N[C@H]1CCC(=O)NCCC[C@@H](C(=O)O)NC(=O)[C@H](Cc2c[nH]c3ccccc23)NC(=O)[C@H](CCCNC(=N)N)NC(=O)[C@@H](Cc2ccccc2)NC(=O)[C@H](COCc2ccccc2)NC1=O [No. 17, Ac-Arg-cyclo(Glu-Ser(Bzl)-D-Phe-Arg-Trp-Orn)-OH] | 6 nM | 55% | 2 nM
CC(=O)N[C@@H](CCCNC(=N)N)C(=O)N[C@H]1CCC(=O)NCCC[C@@H](C(N)=O)NC(=O)[C@H](Cc2c[nH]c3ccccc23)NC(=O)[C@H](CCCNC(=N)N)NC(=O)[C@@H](Cc2ccccc2)NC(=O)[C@@H]2C[C@@H](N)CN2C1=O [No. 32, Ac-Arg-cyclo(Glu-Pro(4R-NH2)-D-Phe-Arg-Trp-Orn)-NH2] | 6 nM | 55% | 8 nM
CC(=O)N[C@@H](CCCNC(=N)N)C(=O)N[C@H]1CCC(=O)NCCC[C@@H](C(N)=O)NC(=O)[C@H](Cc2c[nH]c3ccccc23)NC(=O)[C@H](CCCNC(=N)N)NC(=O)[C@@H](Cc2ccccc2)NC(=O)[C@H](CC(N)=O)NC1=O [No. 34, Ac-Arg-cyclo(Glu-Asn-D-Phe-Arg-Trp-Orn)-NH2] | 6 nM | – | 0.4 nM
CCCC[C@H](NC(C)=O)C(=O)N[C@H]1CCCNC(=O)CC[C@@H](C(=O)O)NC(=O)[C@H](Cc2c[nH]c3ccccc23)NC(=O)[C@H](CCCNC(=N)N)NC(=O)[C@@H](Cc2ccccc2)NC(=O)[C@H](Cc2c[nH]cn2)NC1=O [No. 35, Ac-Nle-cyclo(Orn-His-D-Phe-Arg-Trp-Glu)-OH] | 1 nM | 97% | 2 nM
CC(=O)N[C@@H](CCCNC(=N)N)C(=O)N[C@H]1CC(=O)NCCCC[C@@H](C(=O)O)NC(=O)[C@H](Cc2c[nH]c3ccccc23)NC(=O)[C@H](CCCNC(=N)N)NC(=O)[C@@H](Cc2ccccc2)NC(=O)[C@H](CCN)NC1=O [reference compound] | – | 91% | –
CC(=O)N[C@@H](CCCNC(=N)N)C(=O)N[C@H]1CC(=O)NCCCC[C@@H](C(=O)NC2CC2)NC(=O)[C@H](Cc2c[nH]c3ccccc23)NC(=O)[C@H](CCCNC(=N)N)NC(=O)[C@@H](Cc2ccccc2)NC(=O)[C@H](CCC(N)=O)NC1=O [reference compound] | – | 79% | 9 nM
CC(=O)N[C@@H](CCCNC(=N)N)C(=O)N[C@H]1CC(=O)NCCCC[C@@H](C(N)=O)NC(=O)[C@H](Cc2c[nH]c3ccccc23)NC(=O)[C@H](CCCNC(=N)N)NC(=O)[C@@H](Cc2ccccc2)NC(=O)[C@H](CCCCN)NC1=O [reference compound] (Ac-RDK[dF]RWK-NH2; lactam 2-7) | – | 97% | 8 nM
CC(=O)N[C@@H](CCCNC(=N)N)C(=O)N[C@H]1CC(=O)NCCCC[C@@H](C(=O)O)NC(=O)[C@H](Cc2c[nH]c3ccccc23)NC(=O)[C@H](CCCNC(=N)N)NC(=O)[C@@H](Cc2ccccc2)NC(=O)[C@H](CC(N)=O)NC1=O [reference compound] (Ac-RDN[dF]RWK-OH; lactam 2-7) | – | 73% | –

The remaining lines, values ahead:

Ki [1] | Emax [2] | EC50 [2] | Structure (SMILES)
0.1 nM | 93% | 0.1 nM | CCCC[C@H](NC(C)=O)C(=O)N[C@H]1CCC(=O)NCCC[C@@H](C(N)=O)NC(=O)[C@H](Cc2c[nH]c3ccccc23)NC(=O)[C@H](CCCNC(=N)N)NC(=O)[C@@H](Cc2ccccc2)NC(=O)[C@H](Cc2c[nH]cn2)NC1=O [No. 2, Ac-Nle-cyclo(Glu-His-D-Phe-Arg-Trp-Orn)-NH2]
1 nM | 83% | 0.2 nM | CC(=O)N[C@@H](CCCNC(=N)N)C(=O)N[C@H]1CCC(=O)NCCC[C@@H](C(N)=O)NC(=O)[C@H](Cc2c[nH]c3ccccc23)NC(=O)[C@H](CCCNC(=N)N)NC(=O)[C@@H](Cc2ccccc2)NC(=O)[C@H](Cc2c[nH]cn2)NC1=O [No. 4, Ac-Arg-cyclo(Glu-His-D-Phe-Arg-Trp-Orn)-NH2] (Ac-REH[dF]RW[Orn]-NH2; lactam 2-7)
4 nM | 94% | 0.3 nM | CC(=O)N[C@@H](CCCNC(=N)N)C(=O)N[C@H]1CCC(=O)NCCC[C@@H](C(N)=O)NC(=O)[C@H](Cc2c[nH]c3ccccc23)NC(=O)[C@H](CCCNC(=N)N)NC(=O)[C@@H](Cc2ccccc2)NC(=O)[C@H](CCN)NC1=O [No. 6, Ac-Arg-cyclo(Glu-Dab-D-Phe-Arg-Trp-Orn)-NH2]
9 nM | 95% | 0.4 nM | CC(=O)N[C@@H](CCCNC(=N)N)C(=O)N[C@H]1CCC(=O)NCCC[C@@H](C(N)=O)NC(=O)[C@H](Cc2c[nH]c3ccccc23)NC(=O)[C@H](CCCNC(=N)N)NC(=O)[C@@H](Cc2ccccc2)NC(=O)[C@H](CCCN)NC1=O [No. 8, Ac-Arg-cyclo(GIu-Orn-D-Phe-Arg-Trp-Orn)-NH2]
3 nM | 96% | 6 nM | CC(=O)N[C@@H](CCCNC(=N)N)C(=O)N[C@H]1CCC(=O)NCCC[C@@H](C(N)=O)NC(=O)[C@H](Cc2c[nH]c3ccccc23)NC(=O)[C@H](CCCNC(=N)N)NC(=O)[C@@H](Cc2ccccc2)NC(=O)[C@H](CCC(N)=O)NC1=O [No. 12, Ac-Arg-cyclo(Glu-Gln-D-Phe-Arg-Trp-Orn)-NH2]
7 nM | 90% | 3 nM | CC(=O)NCCC[C@@H]1NC(=O)[C@@H](NC(=O)[C@H](CCCNC(=N)N)NC(C)=O)CCC(=O)NCCC[C@@H](C(N)=O)NC(=O)[C@H](Cc2c[nH]c3ccccc23)NC(=O)[C@H](CCCNC(=N)N)NC(=O)[C@@H](Cc2ccccc2)NC1=O [No. 33, Ac-Arg-cyclo(Glu-Orn(Acetyl)-D-Phe-Arg-Trp-Orn)-NH2]
– | 91% | 4 nM | CC(=O)N[C@@H](CCCNC(=N)N)C(=O)N[C@H]1CC(=O)NCCCC[C@@H](C(=O)O)NC(=O)[C@H](Cc2c[nH]c3ccccc23)NC(=O)[C@H](CCCNC(=N)N)NC(=O)[C@@H](Cc2ccccc2)NC(=O)[C@H](Cc2c[nH]cn2)NC1=O [reference compound]
– | 83% | – | CC(=O)N[C@@H](CCCNC(=N)N)C(=O)N[C@H]1CC(=O)NCCCC[C@@H](C(N)=O)NC(=O)[C@H](Cc2c[nH]c3ccccc23)NC(=O)[C@H](CCCNC(=N)N)NC(=O)[C@@H](Cc2ccccc2)NC(=O)[C@H](Cc2c[nH]cn2)NC1=O [reference compound]
– | 89% | – | CC(=O)N[C@H](CCCNC(=N)N)C(=O)N[C@H]1CC(=O)NCCCC[C@@H](C(N)=O)NC(=O)[C@H](Cc2c[nH]c3ccccc23)NC(=O)[C@H](CCCNC(=N)N)NC(=O)[C@@H](Cc2ccccc2)NC(=O)[C@H](Cc2c[nH]cn2)NC1=O [reference compound]
– | 43% | – | CC(=O)N[C@@H](CCCNC(=N)N)C(=O)N[C@H]1CC(=O)NCCCC[C@@H](C(N)=O)NC(=O)[C@H](Cc2c[nH]c3ccccc23)NC(=O)[C@H](CCCNC(=N)N)NC(=O)[C@@H](Cc2ccccc2)NC(=O)[C@@H]2CCCN2C1=O [reference compound]
– | 35% | – | CC(=O)N[C@H]1CC(=O)NCCCC[C@@H](C(N)=O)NC(=O)[C@H](Cc2c[nH]c3ccccc23)NC(=O)[C@H](CCCNC(=N)N)NC(=O)[C@@H](Cc2ccccc2)NC(=O)[C@H](CCC(N)=O)NC1=O [reference compound] (Ac-DQ[dF]RWK-NH2; lactam 1-6)
